Data set [1] is described as follows: Properties of solutions (conductivity, osmolarity). Type of data set: physicochemical. To be noted: base 250 mM sucrose, 1 mM MgCl2, 10 mM HEPES, pH 7.2-7.4. The protocol: All solutions consisted of the same base ingredients: 250 mM sucrose, 1 mM MgCl2, and 10 mM HEPES buffer in deionized water with a pH in the range of 7.2-7.4. […] Cell culture media contains things such as serum and antibiotics that may affect results. Finally, fresh solutions were added immediately prior to pulsing. All solutions were adjusted to have a pH between 7.2-7.4.

Data set [2] concerns U251 malignant glioma cells. Briefly: H-FIRE ablation (lesion) area in collagen scaffolds, live/dead stain 24 hr after treatment. Type of data set: cell-based. The protocol: U251 malignant glioma cells (Sigma Aldrich, 09063001) were maintained at 5% CO2 and 37° C. in Eagle's Minimum Essential Medium (Sigma Aldrich) supplemented with 1% penicillin/streptomycin (Life Technologies), 10% fetal bovine serum (Atlanta Biologicals), 1% non-essential amino acids (Sigma Aldrich) and 1 mM sodium pyruvate (Sigma Aldrich). Cells were routinely passaged at 80-90% confluence. […] PDMS wells were treated with 1% PEI (Acros Organics) for 10 min, 0.1% glutaraldehyde (Fisher Scientific) for 20 min, and then washed twice with deionized water prior to collagen seeding to ensure collagen adhesion during treatment. Commercial rat tail collagen type I (BD Biosciences) was neutralized using a solution of 10× Dulbecco's Modified Eagle Medium (10% total volume, Sigma Aldrich), 1 N NaOH (2% collagen volume, Sigma Aldrich), and 1× Dulbecco's Modified Eagle Medium (Sigma Aldrich) to a final concentration of 5 mg/mL. […] The collagen/cell solution was dispensed into PDMS wells and PDMS tops were used to mold the collagen flat while they polymerized in a cell culture incubator for 20 min. PDMS tops were then removed and cell culture media was added. Collagen scaffolds were maintained in the incubator for 24 hr prior to treatment. […] All solutions consisted of the same base ingredients: 250 mM sucrose, 1 mM MgCl2, and 10 mM HEPES buffer in deionized water with a pH in the range of 7.2-7.4. […] Cell culture media contains things such as serum and antibiotics that may affect results. Finally, fresh solutions were added immediately prior to pulsing. All solutions were adjusted to have a pH between 7.2-7.4. The osmolarity and conductivity of the buffers used are shown in Table 1: In this example, two hollow, stainless-steel needle electrodes (Howard electronics) were inserted into the scaffolds using a custom designed electrode housing. […] H-FIRE pulses were delivered using a high-voltage pulse generator (EPULSUS®-FBM1-5, EnergyPulse Systems, Lda). Voltage waveforms were captured using a high voltage probe and oscilloscope (DPO 2012, Tektronix). […] The pulses delivered were bipolar pulses having a positive pulse duration, inter-pulse delay, and negative pulse duration (see, e.g., FIG. 1B). Inter-pulse delay was kept constant (1 μs) while pulse width was varied (1, 2, 5, 10 μs). […] For reversible threshold experiments, scaffolds were imaged immediately after treatment. To visualize ablations, a live/dead stain was performed to visualize live and dead regions of cells in the scaffold. […] Scaffolds were then washed 2× with PBS prior to imaging using an inverted microscope (DMI 6000B, Leica Microsystems) with a 5× objective. Lesion areas were quantified for each treatment using a MATLAB algorithm. Since 24 h post treatment is sufficient to allow any reversibly electroporated cells to recover (as pore resealing happens on the order of minutes), staining the cells immediately after treatment and 24 h later allows for quantification of both the reversible zone of electroporation and irreversible zones of ablation. […] Scaffolds were then washed twice with PBS prior to imaging using an inverted microscope (DMI 6000B, Leica Microsystems) with a 5× objective, filter cubes, and an EM-CCD camera (Hamamatsu C9100). The appropriate filters were used to image Calcein AM (Ex:460-500, DC: 505, EM: 570-640) and propidium iodide (EX:545/26, DC:565, EM:605/70). […] Scaffolds were then imaged immediately after treatment. […] Reversible electroporation experiments were repeated at least six times. Discrepancies in the number of replicates between conditions were due to bubbles or other defects that may have changed the electric field distribution or prohibited a reliable measurement of ablation area. These scaffolds were excluded from analysis. Two-way ANOVA was used to test for differences in cell death area due to the different applied solutions and pulse waveforms. Tukey post-hoc comparisons were used to examine differences among treatment groups. […]

For data set [3], the system named is U251 malignant glioma cells. Briefly: Electric field threshold for cell death, ablation area mapped to finite element model.
Experimental: For analysis, images were separated into two channels (green—Calcein AM, red—PI) and ablation areas for the green channel were analyzed for irreversible thresholds and red channels for reversible electroporation thresholds using a custom algorithm written in MATLAB. In cases where the algorithm was unable to accurately measure ablations, coordinate points from the algorithm outlining the ablation area were used as a guide to manually trace and measure the area in ImageJ. Ablation area measurements were mapped to a finite element model of the experimental setup to determine the corresponding electric field threshold.
Treatments were simulated using the finite element method (COMSOL Multiphysics, Burlington, Mass.) and the electric field and temperature distributions were determined. The mesh was refined until there was <1% change in the electric field and temperature values along a cutline between the electrodes. The mesh consisted of 102,615 total elements. […] From the finite element model of the collagen scaffold, a relationship between lesion area and electric field magnitude is determined by performing numerical integration on the surface of the scaffold for a range of electric field magnitudes (100-3000 V/cm). A curve was constructed and fit to the data using least squares fitting in MATLAB. […] This equation was used to accurately back out the electric field thresholds for each treatment condition without needing to manually determine them using COMSOL.
From the finite element model, it is possible to determine the electric field threshold required for cell death.
Using the finite element model of H-FIRE treatment in the scaffold, the corresponding electric field thresholds for each ablation area were characterized.
In data set [4] the test system is U251 malignant glioma cells. The experiment in a line: Reversible electroporation zone in collagen scaffolds imaged immediately after H-FIRE treatment. Type of data set: cell-based. As to the method:
After pulsing, CaCl2, NaCl, KCl, and CaCl2/NaCl solutions were removed and cell culture media was added to each scaffold. For irreversible threshold experiments, the scaffolds were returned to the incubator for 24 hr prior to live/dead staining. For reversible threshold experiments, scaffolds were imaged immediately after treatment.
To visualize ablations, a live/dead stain was performed to visualize live and dead regions of cells in the scaffold. Scaffolds were incubated with 2 μM Calcein AM and 23 μM propidium iodide in phosphate buffered saline (PBS) for 30 minutes at room temperature. Scaffolds were then washed 2× with PBS prior to imaging using an inverted microscope (DMI 6000B, Leica Microsystems) with a 5× objective. Lesion areas were quantified for each treatment using a MATLAB algorithm. Since 24 h post treatment is sufficient to allow any reversibly electroporated cells to recover (as pore resealing happens on the order of minutes), staining the cells immediately after treatment and 24 h later allows for quantification of both the reversible zone of electroporation and irreversible zones of ablation.
To stain the scaffolds, media was removed and replaced with phosphate buffered saline (PBS) containing 2 μM Calcein AM (Invitrogen) and 23 μM PI (Invitrogen) and incubated at room temperature for 30 min. Scaffolds were then washed twice with PBS prior to imaging using an inverted microscope (DMI 6000B, Leica Microsystems) with a 5× objective, filter cubes, and an EM-CCD camera (Hamamatsu C9100). The appropriate filters were used to image Calcein AM (Ex:460-500, DC: 505, EM: 570-640) and propidium iodide (EX:545/26, DC:565, EM:605/70). To determine the reversible zone of electroporation, treatment followed the same electroporation protocol, but Calcein AM and PI were added to the CaCl2 and NaCl solutions at all steps prior to pulsing. Scaffolds were then imaged immediately after treatment.
Irreversible electroporation experiments were repeated 6-12 times for each condition. Reversible electroporation experiments were repeated at least six times. Discrepancies in the number of replicates between conditions were due to bubbles or other defects that may have changed the electric field distribution or prohibited a reliable measurement of ablation area. These scaffolds were excluded from analysis. Two-way ANOVA was used to test for differences in cell death area due to the different applied solutions and pulse waveforms. Tukey post-hoc comparisons were used to examine differences among treatment groups. Statistical analyses were performed with a confidence level of α=0.05 (MP Pro 14). Results are shown as means±standard deviation.
To investigate how CaCl2 and NaCl treatments affect permeabilization of the cells, the areas for reversible electroporation and their corresponding reversible electric field thresholds were characterized. Reversible electroporation thresholds for H-FIRE treatment have not been extensively characterized, making this work one of the first to quantify reversible thresholds for a range of unexplored pulse durations.

In data set [1] (1 mM solution), `[Cl-].[K+]` [KCl, potassium chloride] had a Conductivity of 0.064 S/m and an Osmolarity of 289 mOsm/L. Also, the “ablation size relative to the NaCl control” value in data set [2] (1 mM, H-FIRE) is listed as “did not result in statistically significant ablation size”.
For the compound `[Cl-].[Na+]` [NaCl, sodium chloride, reference compound], the electric field threshold in data set [3] (H-FIRE 10-1-10 waveform, 1 mM) stood at 1641±159 V/cm; in data set [3] (IRE treatment) it was 698±103 V/cm. In data set [4] (1 mM and 5 mM, all waveforms), the “reversible areas, NaCl solutions versus CaCl2 counterparts” value is “smaller reversible areas”. For the same compound, the “reversible zones larger than irreversible zones” value turned out to be 4.68 × in data set [4] (2-1-2 waveform, 1 mM); 3.88 × in data set [4] (2-1-2 waveform, 5 mM); 5.58 × in data set [4] (5-1-5 waveform, 1 mM); 3.94 × in data set [4] (5-1-5 waveform, 5 mM); 3.17 × in data set [4] (10-1-10 waveform, 1 mM); 2.94 × in data set [4] (10-1-10 waveform, 5 mM). Also, the “difference between reversible and irreversible electroporation areas” value in data set [4] (FIG. 10) was “largest”. The Conductivity in data set [1] (1 mM solution) amounted to 0.056 ± 0.001 S/m; in data set [1] (5 mM solution) it was 0.089 S/m. The Osmolarity in data set [1] (1 mM solution) came to 287 mOsm/L; in data set [1] (5 mM solution), 291 mOsm/L. In addition, in data set [2] (shorter pulse widths), the “visible lesion after H-FIRE” value is “no visible lesion”.

The values above are taken from patent US20210052882A1, “ENHANCED TREATMENT VOLUME AND SELECTIVE ABLATION USING ELECTROPORATION WITH ADJUVANT CALCIUM” (Virginia Tech Intellectual Properties, Inc., priority 2019, published 2021).
